# Measurements published in publication PMC6268357, “Synthesis and Biological Evaluation of New Ligustrazine Derivatives as Anti-Tumor Agents” (Molecules, 2012).
# Where two headings read alike, the source gives them in different places.
# Columns and labels:
# [1] = tested on: Bel-7402 human cancer cell line; test: MTT anti-proliferation assay, Bel-7402; assay type: cell-based; conditions: for IC50: Homo sapiens, read-out: IC50 Bel 7402
# Description: (§1) The cytotoxicities of these compounds were tested on five cancer cell lines by the standard MTT assay. […] The growing tumor cells at a density 10^4 cells/mL were exposed to various concentrations of the tested drugs and incubated in a 96-well microtiter plate for 96 h (37 °C, 5% CO2). After MTT solution (20 μL, 5 mg/mL) was added to each well, the plate was incubated for a further 4 h. Then the media was removed. Formazan crystals were dissolved with DMSO (150 μL). After mixing well, the absorbance was quantified at 570 nm with a BIORAD 550 spectrophotometer. Wells containing no drugs were used as blanks. […] Tumor cell growth inhibitory rate was calculated in the following equation (1): [drawing 3] (1)
# [2] = tested on: A-549 human cancer cell line; test: MTT anti-proliferation assay, A549; assay type: cell-based; conditions: for IC50: Homo sapiens, read-out: IC50 A549
# Description: as §1
# [3] = tested on: HCT-8 human cancer cell line; test: MTT anti-proliferation assay, HCT-8; assay type: cell-based; conditions: for IC50: Homo sapiens, read-out: IC50 HCT-8
# Description: as §1
# [4] = tested on: BGC-823 human cancer cell line; test: MTT anti-proliferation assay, BGC-823; assay type: cell-based; conditions: for IC50: Homo sapiens, read-out: IC50 BGC-823
# Description: as §1
# [5] = tested on: A2780 human cancer cell line; test: MTT anti-proliferation assay, A2780; assay type: cell-based; conditions: for IC50: Homo sapiens, read-out: IC50 A2780
# Description: as §1
# [6] = tested on: chick chorioallantoic membrane (CAM); test: Chick chorioallantoic membrane (CAM) angiogenesis assay; assay type: in vivo, White Leghorn chicken; conditions: n = 6, implanted day 7, read day 11, microvessels 1 to 100 μm in diameter
# Description: Fertilized White Leghorn chicken eggs, provided by the Chinese Academy of Agricultural Sciences, were placed in an incubator as soon as embryogenesis started and were kept under constant humidity of 65% at 37 °C. On day 7, a square window was opened on the shell and physiological saline (0.1 mL) was injected in to detach the shell membrane. Then gelatin sponges carrying the TMP stimulator derivatives at 10 μg/egg and 40 μg/egg were implanted, respectively. The control group was treated with physiological saline. The windows were sealed with medical adhesive tape and the incubation went on till the experiment day. The above steps were performed under sterile conditions. On the 11th day, the tapes were removed and the entire CAM was detached after tissue fixation with methanol/acetone (1:1, v/v). Then we used computer-assisted image tracking to obtain absolute values for the number of microvessels which were 1 to 100 μm in diameter. Data were analyzed using the t-test option of the of Statistics Analysis System, the values were expressed as mean ± s of 6 observations and P < 0.05 was considered significant.
# [7] = Bel-7402, MTT, 96 h exposure, maximal tested concentration 10.0 ig/mL
# [8] = A549, MTT, 96 h exposure, maximal tested concentration 10.0 ig/mL
# [9] = HCT-8, MTT, 96 h exposure, maximal tested concentration 10.0 ig/mL
# [10] = BGC-823, MTT, 96 h exposure, maximal tested concentration 10.0 ig/mL
# [11] = A2780, MTT, 96 h exposure, maximal tested concentration 10.0 ig/mL
# [12] = MTT, 96 h exposure, maximal tested concentration 10.0 ig/mL
SMILES,"IC50 [1, 7] [µg/mL]","IC50 [2, 8] [µg/mL]","IC50 [3, 9] [µg/mL]","IC50 [4, 10] [µg/mL]","IC50 [5, 11] [µg/mL]","Number of microvessels on CAM, treatment (mean ± s) ([6]; dose 10 μg/egg)","Number of microvessels on CAM, treatment (mean ± s) ([6]; dose 40 μg/egg)","IC50 Bel 7402 [1, 12]","IC50 A549 [2, 12]","IC50 HCT-8 [3, 12]","IC50 BGC-823 [4, 12]","IC50 A2780 [5, 12]","IC50 ([1]; Bel-7402, 96 h) [µg/mL]","IC50 ([2]; A549, 96 h) [µg/mL]","IC50 ([3]; HCT-8, 96 h) [µg/mL]","IC50 ([4]; BGC-823, 96 h) [µg/mL]","IC50 ([5]; A2780, 96 h) [µg/mL]"
"Cc1nc(C)c(COC(=O)CC[C@@H](C)C2CCC3C4C(C[C@H](O)C32C)C2(C)CC[C@@H](O)CC2C[C@H]4O)nc1C (stereo partly drawn) [Compound 6, 3α,7α,12α-Trihydroxy-5β-cholanic acid-3,5,6-trimethylpyrazin-2-methyl ester]",> 10,> 10,> 10,> 10,> 10,6.2 ± 2.40,5.7 ± 2.07,–,–,–,–,–,–,–,–,–,–
"Cc1nc(C)c(C)nc1C [TMP, ligustrazine]",> 10,> 10,> 10,> 10,> 10,–,–,–,–,–,–,–,–,–,–,–,–
"Cc1nc(C)c(COC(=O)C23CCC(C)(C)CC2C2=CCC4C5(C)CCC(O)C(C)(C)C5CCC4(C)[C@]2(C)CC3)nc1C (stereo partly drawn) [Compound 7, 3β-Hydroxyolea-12-en-28-oic acid-3,5,6-trimethylpyrazin-2-methyl ester]",7.61,> 10,9.27,> 10,> 10,12.0 ± 2.90,9.5 ± 4.55,–,–,–,–,–,–,–,–,–,–
"Cc1nc(C)c(COC(=O)/C=C/c2ccccc2)nc1C [Compound 11, 3-Phenyl-2-propenoic acid-3,5,6-trimethylpyrazin-2-methyl ester]",9.4,7.83,> 10,> 10,> 10,10.3 ± 2.73,7.0 ± 3.03,–,–,–,–,–,–,–,–,–,–
"C=C(CCC(C(=O)O)[C@H]1[C@H](O)C[C@@]2(C)C3=CC[C@H]4C(C)(C)[C@@H](OC(C)=O)CC[C@]4(C)C3=CC[C@]12C)C(C)C (stereo partly drawn) [DPA, dehydropachymic acid]",–,–,–,–,–,–,–,— ^a (IC50 > 10.0 ig/mL),— (IC50 > 10.0 ig/mL),— (IC50 > 10.0 ig/mL),— (IC50 > 10.0 ig/mL),— (IC50 > 10.0 ig/mL),–,–,–,–,–
"C=C(CCC(C(=O)OCc1nc(C)c(C)nc1C)C1[C@H](O)C[C@@]2(C)C3=CCC4C(C)(CCC(OC(C)=O)C4(C)C)C3=CCC12C)C(C)C (stereo partly drawn) [Compound 9, 3β-Acetoxy-16α-hydroxy-lanosta-7,9(11),24(31)-trien-21-oic acid-3,5,6-trimethylpyrazin-2-methyl ester]",> 10,8.77,> 10,> 10,> 10,7.7 ± 2.16,5.7 ± 1.21,–,–,–,–,–,–,–,–,–,–
"CC1(C)CC[C@]2(C(=O)O)CC[C@]3(C)C(=CC[C@@H]4[C@@]5(C)CC[C@H](O)C(C)(C)[C@@H]5CC[C@]43C)[C@@H]2C1 [OA, oleanolic acid]",> 10,> 10,> 10,> 10,> 10,–,–,–,–,–,–,–,–,–,–,–,–
"C[C@H](CCC(=O)O)[C@H]1CC[C@H]2[C@@H]3[C@H](O)C[C@@H]4C[C@H](O)CC[C@]4(C)[C@H]3C[C@H](O)[C@]12C [CA, cholic acid]",–,–,–,–,–,–,–,–,–,–,–,–,> 10,> 10,> 10,> 10,> 10
